# According to patent publication US10189794B2, “Heteroaryl compounds and uses thereof” (Celgene CAR LLC, priority 2013, dated 2019):
# Where two headings read alike, the source gives them in different places.
# Legend:
# FGFR4-WT = FGFR4-WT (Homo sapiens (Human), UniProt P22455); assay: Omnia assay for potency assessment against FGFR4 enzyme; format: biochemical; conditions: read-out: FGFR4 IC50
# Description: A 10× stock solution of FGFR4-WT (PR4380C), (from Invitrogen, Carlsbad, Calif.) corresponding to method a in Table 7, was prepared as described below. Alternatively, a 10× stock solution of FGFR4-WT (F01-11G), (SignalChem, Richmond, BC) corresponding to method b in Table 7, was prepared as described below. A solution of 1.4×ATP (AS001A) and 5×Tyr-Sox conjugated peptide substrate (KNZ3101) were prepared in IX kinase reaction buffer consisting of 20 mM Tris, pH 7.5, 5 mM MgCl2, 1 mM EGTA, 5 mM β-glycerophosphate, 5% glycerol (10× stock, KB002A) and 0.2 mM DTT (DS001A). […] The serially diluted compounds were prepared on a Tecan EVO100. A second addition of 10 μl of Tyr-Sox FGFR4 substrate was added to each well and the kinase reactions were started with the addition of 35 μL of 1.4×ATP. The reactions were monitored every 71 seconds for 240 minutes at λex360/λem485 in a Synergy plate reader from BioTek (Winooski, Vt.).
# Huh7 cells = assay: Cell proliferation, Huh7 (CellTiter Glo); format: cell-based; conditions: Homo sapiens, read-out: Cell Proliferation GI50 (nM) HUH
# Description: The growth inhibition (GI50) values were determined by Graph Pad Prism.
# MDA-MB-453 cells = assay: Cell proliferation, MDA-MB-453 (CellTiter Glo); format: cell-based; conditions: Homo sapiens, read-out: Cell Proliferation GI50 (nM) MDA
# Description: For both MDA-MB-453 and Huh7 cells the starting density was 5000 cells per well. The cells were allowed to settle down for 4 hr and were then treated with 5, 1.25, 0.31, 0.078, 0.020 or 0.005 μM of test compound for: 96 hr for MDA-MB-453 and 120 hr for Huh7 cells. Cell viability was determined by CellTiter Glo (Promega, Madison, Wis.) and the results were converted to cell numbers using a standard curve. The growth inhibition (GI50) values were determined by Graph Pad Prism.
# The results of these experiments show the ability of compounds to inhibit cell growth in FGFR dependant cell lines and are depicted in Table 8, in the columns titled “Cell Proliferation GI50 (nM)”. MDA-MB-453 cell results fall under the heading “MDA” and Huh7 cell results fall under the heading “Huh.”
# [1] = molecular target: FGFR4 in MDA-MB-453 cells (Homo sapiens (Human), UniProt P22455, Y367C); assay: Target occupancy assay with biotinylated covalent probe I-127; format: cell-based; conditions: MDA-MB-453 lysate; 2 μM biotinylated probe I-127
# Sequence of FGFR4 in MDA-MB-453 cells (P22455 22-802 Y367C): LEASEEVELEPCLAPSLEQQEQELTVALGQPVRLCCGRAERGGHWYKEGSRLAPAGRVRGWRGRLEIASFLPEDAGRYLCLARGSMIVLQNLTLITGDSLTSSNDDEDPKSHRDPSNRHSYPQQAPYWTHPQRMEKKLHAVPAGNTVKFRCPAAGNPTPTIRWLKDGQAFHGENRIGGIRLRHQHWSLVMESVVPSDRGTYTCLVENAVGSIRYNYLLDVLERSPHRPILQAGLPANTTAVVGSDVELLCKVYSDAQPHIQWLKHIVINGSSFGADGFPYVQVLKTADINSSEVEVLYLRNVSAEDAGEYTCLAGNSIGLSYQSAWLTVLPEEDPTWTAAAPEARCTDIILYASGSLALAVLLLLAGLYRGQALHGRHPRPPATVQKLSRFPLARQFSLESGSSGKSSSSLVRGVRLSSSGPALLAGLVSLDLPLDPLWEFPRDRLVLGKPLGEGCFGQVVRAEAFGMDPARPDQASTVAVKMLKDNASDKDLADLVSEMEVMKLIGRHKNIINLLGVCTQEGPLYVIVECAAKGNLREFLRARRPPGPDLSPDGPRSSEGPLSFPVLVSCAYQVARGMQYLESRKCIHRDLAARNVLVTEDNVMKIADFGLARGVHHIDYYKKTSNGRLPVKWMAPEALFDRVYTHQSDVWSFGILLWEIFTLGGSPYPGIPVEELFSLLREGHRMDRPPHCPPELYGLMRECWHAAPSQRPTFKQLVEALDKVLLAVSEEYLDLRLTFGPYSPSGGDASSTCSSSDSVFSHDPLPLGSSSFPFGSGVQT
# Description: In order to assess free FGFR4 protein a biotinylated covalent probe was utilized. […] The reaction was incubated for 2 hr at room temperature. The samples and probe mixture were transferred to a FGFR4-coated MSD plate for 2 hr at room temperature. MSD signals were obtained with an anti-streptavidin Sulfo-tag (Meso Scale) antibody for 1 hr at room temperature.
# If a compound completely (100%) covalently modies FGFR4 no free FGFR4 should be available for covalent modification by the biotinylated probe and subsequent binding to streptavidin and detection.
# [2] = method a: Invitrogen FGFR4-WT 10 nM, ATP 300 uM, Y10-Sox 10 uM
# Sequence of FGFR4-WT (P22455 22-802): as the sequence (P22455 22-802 Y367C) above, with C346Y counted along it
Compound,IC50 (FGFR4-WT; [2]),"GI50 (Huh7 cells; Huh-7, Huh7, 120 hr)","GI50 (MDA-MB-453 cells; MDA-MB-453, 96 hr)",other results
C=CC(=O)NC1CCCCC1Nc1ncc2c(n1)N(C)C(=O)N(c1cc(OC)cc(OC)c1)C2 (racemic) [I-18],,,,"IC50 (FGFR4-WT; method b: SignalChem FGFR4-WT 2.5 nM, ATP 250 uM, Y10-Sox 10 uM): > 1000 nM"
C=CC(=O)N(C)C1CCCCC1Nc1ncc2c(n1)N(C)C(=O)N(c1cc(OC)cc(OC)c1)C2 (racemic) [I-39],> 1000 nM,,,
C=CC(=O)NC1CCCCC1Nc1ncc2c(n1)N(C1CCCN(C(=O)OC(C)(C)C)C1)C(=O)N(c1cc(OC)cc(OC)c1)C2 (racemic) [I-45],> 1000 nM,,,
C=CC(=O)NC1CCCCC1Nc1ncc2c(n1)N(C1CCCNC1)C(=O)N(c1cc(OC)cc(OC)c1)C2 (racemic) [I-46],> 1000 nM,,,
C=CC(=O)NC1CCCCC1Nc1ncc2c(n1)N(C1CCC1)C(=O)N(c1c(Cl)c(OC)cc(OC)c1Cl)C2 (racemic) [I-70],< 100 nM,,,
C=CC(=O)NC1CCCCC1Nc1ncc2c(n1)N(Cc1cccc(NS(C)(=O)=O)c1)C(=O)N(c1c(Cl)c(OC)cc(OC)c1Cl)C2 (racemic) [I-89],< 100 nM,,,
C=CC(=O)NC1CCCC1Nc1ncc2c(n1)N(C)C(=O)N(c1c(Cl)c(OC)cc(OC)c1Cl)C2 (racemic) [I-112],< 100 nM,,,
C=CC(=O)NC1CC=CCC1Nc1ncc2c(n1)N(C)C(=O)N(c1c(Cl)c(OC)cc(OC)c1Cl)C2 (racemic) [I-113],< 100 nM,501 to 999 nM,,
C=CC(=O)NC1CCCCC1Nc1ncc2c(n1)N(CC1CC1)C(=O)N(c1c(Cl)c(OC)cc(OC)c1Cl)C2 (racemic) [I-129],< 100 nM,,,
C=CC(=O)Nc1cc(C(F)(F)F)ccc1Nc1ncc2c(n1)N(Cc1ccccc1)C(=O)N(c1c(Cl)c(OC)cc(OC)c1Cl)C2 [I-6],,101 to 500 nM,< 100 nM,
C=CC(=O)Nc1ccccc1Nc1ncc2c(n1)N(Cc1cccc(F)c1)C(=O)N(c1c(Cl)c(OC)cc(OC)c1Cl)C2 [I-12],,,101 to 500 nM,EC50 [1]: 101 to 500 nM
C=CC(=O)Nc1cc(N2CCN(CC)CC2)ccc1Nc1ncc2c(n1)N(C)C(=O)N(c1cc(OC)cc(OC)c1)C2 [I-15],,,< 100 nM,EC50 [1]: 101 to 500 nM
C=CC(=O)Nc1ccccc1Nc1ncc2c(n1)N(Cc1cccc(OC)c1)C(=O)N(c1c(Cl)c(OC)cc(OC)c1Cl)C2 [I-28],< 100 nM,,,
C=CC(=O)Nc1ccccc1Nc1ncc2c(n1)N(CC#N)C(=O)N(c1cc(OC)cc(OC)c1)C2 [I-48],,> 1000 nM,501 to 999 nM,
C=CC(=O)N(C)C1CCCCC1Nc1ncc2c(n1)N(C)C(=O)N(c1c(Cl)c(OC)cc(OC)c1Cl)C2 (centres unmarked) [I-53],< 100 nM,,,
C=CC(=O)Nc1cc(N2CCN(C(=O)OC(C)(C)C)CC2)ccc1Nc1ncc2c(n1)N(C)C(=O)N(c1c(Cl)c(OC)cc(OC)c1Cl)C2 [I-62],< 100 nM,,,
C=CC(=O)Nc1ccccc1Nc1ncc2c(n1)N(Cc1cscn1)C(=O)N(c1cc(OC)cc(OC)c1)C2 [I-64],,> 1000 nM,101 to 500 nM,
C=CC(=O)Nc1ccccc1Nc1ncc2c(n1)N(C)C(=O)N(c1c(Cl)cccc1Cl)C2 [I-83],,> 1000 nM,501 to 999 nM,
C=CC(=O)Nc1ccccc1Nc1ncc2c(n1)N(C1CCNCC1)C(=O)N(c1c(Cl)c(OC)cc(OC)c1Cl)C2 [I-85],,,,"GI50 (MDA-MB-453 cells; MDA-MB-453, 96 h): < 100 nM; GI50 (Huh7 cells; Huh-7, 120 h): 101 to 500 nM"
C=CC(=O)Nc1ccccc1Nc1ncc2c(n1)N(Cc1ccnc(N)c1)C(=O)N(c1cc(OC)cc(OC)c1)C2 [I-87],,101 to 500 nM,< 100 nM,
C=CC(=O)Nc1ccccc1Nc1ncc2c(n1)N(C1COC1)C(=O)N(c1cc(OC)cc(OC)c1)C2 [I-88],,> 1000 nM,501 to 999 nM,
C=CC(=O)N[C@H]1CCCC[C@H]1Nc1ncc2c(n1)N(C)C(=O)N(c1c(Cl)c(OC)cc(OC)c1Cl)C2 [I-95],,501 to 999 nM,101 to 500 nM,

Compound,IC50 (FGFR4-WT; [2]),"GI50 (Huh7 cells; Huh-7, Huh7, 120 hr)","GI50 (MDA-MB-453 cells; MDA-MB-453, 96 hr)",other results
C=CC(=O)Nc1ccccc1Nc1ncc2c(n1)N(Cc1cccc(C(N)=O)c1)C(=O)N(c1cc(OC)cc(OC)c1)C2 [I-97],,> 1000 nM,101 to 500 nM,
C=CC(=O)Nc1ccccc1Nc1ncc2c(n1)N(CC1CC1)C(=O)N(c1cc(OC)cc(OC)c1)C2 [I-98],,> 1000 nM,101 to 500 nM,
C=CC(=O)Nc1ccccc1Nc1ncc2c(n1)N(CC(F)F)C(=O)N(c1cc(OC)cc(OC)c1)C2 [I-99],,> 1000 nM,101 to 500 nM,
C=CC(=O)Nc1ccccc1Nc1ncc2c(n1)N(CC1CC1)C(=O)N(c1cc(OC)cc(OC)c1Cl)C2 [I-100],,501 to 999 nM,101 to 500 nM,
C=CC(=O)Nc1ccccc1Nc1ncc2c(n1)N(CC(F)F)C(=O)N(c1c(Cl)c(OC)cc(OC)c1Cl)C2 [I-103],,101 to 500 nM,< 100 nM,
C=CC(=O)Nc1ccccc1Nc1ncc2c(n1)N(CC(F)F)C(=O)N(c1cc(OC)cc(OC)c1Cl)C2 [I-104],,101 to 500 nM,< 100 nM,
C=CC(=O)Nc1ccccc1Nc1ncc2c(n1)N(CCF)C(=O)N(c1cc(OC)cc(OC)c1Cl)C2 [I-110],,501 to 999 nM,101 to 500 nM,
C=CC(=O)Nc1ccccc1Nc1ncc2c(n1)N(CC(F)F)C(=O)N(c1c(F)c(OC)cc(OC)c1F)C2 [I-116],,101 to 500 nM,< 100 nM,
CCC(=O)N[C@H]1CCCC[C@H]1Nc1ncc2c(n1)N(Cc1cscn1)C(=O)N(c1c(Cl)c(OC)cc(OC)c1Cl)C2 [I-118],> 1000 nM,,,
C=CC(=O)N[C@@H]1CCCC[C@@H]1Nc1ncc2c(n1)N(Cc1cscn1)C(=O)N(c1c(Cl)c(OC)cc(OC)c1Cl)C2 [I-119],,,,IC50 (FGFR4-WT): > 1000 nM
C=CC(=O)Nc1ccccc1Nc1ncc2c(n1)N(Cc1cn[nH]c1)C(=O)N(c1cc(OC)cc(OC)c1)C2 [I-121],,501 to 999 nM,101 to 500 nM,
C=CC(=O)Nc1ccccc1Nc1ncc2c(n1)N(Cc1cn[nH]c1)C(=O)N(c1c(Cl)c(OC)cc(OC)c1Cl)C2 [I-124],,101 to 500 nM,< 100 nM,
C=CC(=O)Nc1ccccc1Nc1ncc2nc(-c3cc(OC)cc(OC)c3)c(=O)n(C)c2n1 [I-128],101 to 500 nM,,,
C=CC(=O)Nc1ccccc1Nc1ncc2c(n1)N(C)C(=O)N(c1c(F)c(OC)cc(OC)c1F)C2 [I-131],,101 to 500 nM,< 100 nM,
C=CC(=O)NC1CCCCC1Nc1ncc2c(n1)N(Cc1ccnc(N)c1)C(=O)N(c1c(Cl)c(OC)cc(OC)c1Cl)C2 (centres unmarked) [I-133],,101 to 500 nM,< 100 nM,
C=CC(=O)N[C@H]1CCCC[C@H]1Nc1ncc2c(n1)N(Cc1cnn(C)c1)C(=O)N(c1c(Cl)c(OC)cc(OC)c1Cl)C2 [I-148],< 100 nM,,,
C=CC(=O)Nc1ccccc1Nc1ncc2c(n1)N(Cc1cnn(C)c1)C(=O)N(c1c(Cl)c(OC)cc(OC)c1Cl)C2 [I-149],< 100 nM,< 100 nM,,
C=CC(=O)Nc1ccccc1Nc1ncc2cc(-c3cc(OC)cc(OC)c3)c(N)nc2n1 [I-155],< 100 nM,,,
C=CC(=O)NC1COCC1Nc1ncc2c(n1)N(Cc1cn[nH]c1)C(=O)N(c1c(Cl)c(OC)cc(OC)c1Cl)C2 (centres unmarked) [I-214],,101 to 500 nM,,IC50 (FGFR4-WT): < 100 nM
C=CC(=O)N[C@H]1CCCC[C@H]1Nc1ncc2c(n1)N(C)C(=O)N(c1c(Cl)c(OC)c(OC)c(OC)c1Cl)C2 [I-221],> 1000 nM,,,
CCC(=O)Nc1ccccc1Nc1ncc2c(n1)N(Cc1ccccc1)C(=O)N(c1c(Cl)c(OC)cc(OC)c1Cl)C2 [I-236],,,,EC50 [1]: > 1000 nM
